PubChem BioAssay AID330 (DTP/NCI, 2004)
Several values for one entry are separate records, joined by “and”; a condition that tells them apart may be missing. Equal values may be shown once. Inconclusive results and toxic doses are left out.

System: P388 leukemia ip, CD2F1 mice, survival T/C
Assay: NCI In Vivo Anticancer Drug Screen. Data for tumor model P388 Leukemia (intraperitoneal) in CD2F1 (CDF1) mice
Conditions: endpoint: median survival time, higher = longer survival
In short: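 Mice carrying the transplanted tumor received test compound or vehicle. Survival was recorded in each group, and the value is the treated-group measurement divided by that of the vehicle-treated control group.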

[1] = dose: 6.25 mg/kg/injection, schedule: Q01DX009 (ip), vehicle: saline
[2] = dose: 50.0 mg/kg/injection, schedule: Q01DX009 (ip), vehicle: saline with Tween-80
[3] = dose: 100.0 mg/kg/injection, schedule: Q01DX009 (ip), vehicle: saline with Tween-80
[4] = dose: 200.0 mg/kg/injection, schedule: Q01DX009 (ip), vehicle: saline with Tween-80
[5] = dose: 100.0 mg/kg/injection, schedule: Q04DX002 (ip), vehicle: saline with Tween-80
[6] = dose: 200.0 mg/kg/injection, schedule: Q04DX002 (ip), vehicle: saline with Tween-80
[7] = dose: 60.0 mg/kg/injection, schedule: Q01DX005 (ip), vehicle: saline with Tween-80
[8] = dose: 120.0 mg/kg/injection, schedule: Q01DX005 (ip), vehicle: saline with Tween-80
[9] = dose: 240.0 mg/kg/injection, schedule: Q01DX005 (ip), vehicle: saline with Tween-80
[10] = dose: 100.0 mg/kg/injection, schedule: Q01DX005 (ip), vehicle: Klucel (hydroxypropylcellulose) (HPC)
[11] = dose: 50.0 mg/kg/injection, schedule: Q01DX009 (ip), vehicle: saline
[12] = dose: 100.0 mg/kg/injection, schedule: Q01DX009 (ip), vehicle: saline
[13] = dose: 200.0 mg/kg/injection, schedule: Q01DX009 (ip), vehicle: saline
[14] = dose: 50.0 mg/kg/injection, schedule: Q01DX005 (ip), vehicle: saline with Tween-80

## CC1CCC(C)N1CCCCN1C(C)CCC1C (configuration not stated)
dose: 3.13 mg/kg/injection, schedule: Q01DX009 (ip), vehicle: saline
  T/C: 104 % of control and 97 % of control
[1]
  T/C: 100 % of control and 104 % of control
dose: 12.5 mg/kg/injection, schedule: Q01DX009 (ip), vehicle: saline
  T/C: 100 % of control and 106 % of control
dose: 25.0 mg/kg/injection, schedule: Q01DX009 (ip), vehicle: saline
  T/C: 96 % of control

## CC(O)(c1ccccc1)C(CCl)N1CCCCC1 (configuration not stated)
[2]
  T/C: 100 % of control
[3]
  T/C: 105 % of control
[4]
  T/C: 105 % of control

## C/C=C1\C[N+]2(C)C3CC1C(C[O-])(C(=O)OC)C2Cc1c3[nH]c2ccccc12 (configuration not stated)
dose: 0.75 mg/kg/injection, schedule: Q01DX005 (ip), vehicle: Klucel (hydroxypropylcellulose) (HPC)
  T/C: 97 % of control
dose: 1.5 mg/kg/injection, schedule: Q01DX005 (ip), vehicle: Klucel (hydroxypropylcellulose) (HPC)
  T/C: 91 % of control
dose: 3.0 mg/kg/injection, schedule: Q01DX005 (ip), vehicle: Klucel (hydroxypropylcellulose) (HPC)
  T/C: 96 % of control
dose: 6.0 mg/kg/injection, schedule: Q01DX005 (ip), vehicle: Klucel (hydroxypropylcellulose) (HPC)
  T/C: 92 % of control

## CCOC(=O)C1=C(C(=O)C(C)(C)C)C(c2ccc([N+](=O)[O-])cc2)C(C(=O)C(C)(C)C)=C(C(=O)OCC)N1
dose: 60.0 mg/kg/injection, schedule: Q01DX005 (ip), vehicle: Klucel (hydroxypropylcellulose) (HPC)
  T/C: 103 % of control
dose: 120.0 mg/kg/injection, schedule: Q01DX005 (ip), vehicle: Klucel (hydroxypropylcellulose) (HPC)
  T/C: 94 % of control
dose: 240.0 mg/kg/injection, schedule: Q01DX005 (ip), vehicle: Klucel (hydroxypropylcellulose) (HPC)
  T/C: 103 % of control

## [Cl][Pt+2][Cl].[NH-]c1nc2ccc(Br)cc2s1.[NH-]c1nc2ccc(Br)cc2s1
[5]
  T/C: 103 % of control
[6]
  T/C: 91 % of control

## CC(C)(C)c1ccc(-c2cc3nc(-c4ccccc4)cc(=O)n3[nH]2)cc1
[7]
  T/C: 100 % of control
[8]
  T/C: 98 % of control
[9]
  T/C: 98 % of control

## C/C(=N\NC(=O)c1ccccc1O)c1cccc(/C(C)=N/NC(=O)c2ccccc2O)n1
dose: 3.12 mg/kg/injection, schedule: Q01DX009 (ip), vehicle: saline
  T/C: 110 % of control
[1]
  T/C: 114 % of control

## O=C(Oc1ccc[nH]c1=O)c1cccc(Cl)c1
dose: 25.0 mg/kg/injection, schedule: Q01DX009 (ip), vehicle: distilled water + Tween-80
  T/C: 100 % of control
dose: 50.0 mg/kg/injection, schedule: Q01DX009 (ip), vehicle: distilled water + Tween-80
  T/C: 100 % of control
dose: 100.0 mg/kg/injection, schedule: Q01DX009 (ip), vehicle: distilled water + Tween-80
  T/C: 95 % of control
dose: 200.0 mg/kg/injection, schedule: Q01DX009 (ip), vehicle: distilled water + Tween-80
  T/C: 99 % of control
dose: 400.0 mg/kg/injection, schedule: Q01DX009 (ip), vehicle: distilled water + Tween-80
  T/C: 97 % of control

## CCC[CH2][Pb]([CH2]CCC)([O]C(C)=O)[O]C(C)=O
dose: 1.56 mg/kg/injection, schedule: Q04DX003 (ip), vehicle: saline
  T/C: 114 % of control
dose: 3.13 mg/kg/injection, schedule: Q04DX003 (ip), vehicle: saline
  T/C: 118 % of control
dose: 6.25 mg/kg/injection, schedule: Q04DX003 (ip), vehicle: saline
  T/C: 120 % of control

## Cc1nnc(Cc2ccc([N+](=O)[O-])cc2)c2n[nH]c(C)c12
dose: 25.0 mg/kg/injection, schedule: Q01DX001 (ip), vehicle: Klucel (hydroxypropylcellulose) (HPC)
  T/C: 104 % of control
dose: 50.0 mg/kg/injection, schedule: Q01DX001 (ip), vehicle: Klucel (hydroxypropylcellulose) (HPC)
  T/C: 102 % of control
dose: 100.0 mg/kg/injection, schedule: Q01DX001 (ip), vehicle: Klucel (hydroxypropylcellulose) (HPC)
  T/C: 109 % of control
dose: 100.0 mg/kg/injection, schedule: Q04DX002 (ip), vehicle: Klucel (hydroxypropylcellulose) (HPC)
  T/C: 90 % of control

## CCCC(NC(=O)OCc1ccccc1)C(=O)NC(C)C(=O)O (configuration not stated)
dose: 25.0 mg/kg/injection, schedule: Q01DX009 (ip), vehicle: Klucel (hydroxypropylcellulose) (HPC)
  T/C: 104 % of control
dose: 50.0 mg/kg/injection, schedule: Q01DX009 (ip), vehicle: Klucel (hydroxypropylcellulose) (HPC)
  T/C: 105 % of control
[10]
  T/C: 100 % of control
dose: 100.0 mg/kg/injection, schedule: Q01DX009 (ip), vehicle: Klucel (hydroxypropylcellulose) (HPC)
  T/C: 106 % of control

## CCCCCNc1ccc(NCCCCC)c2c1C(=O)c1ccccc1C2=O
[11]
  T/C: 98 % of control
[12]
  T/C: 99 % of control
[13]
  T/C: 89 % of control

## Cc1cc(NC(=S)SCc2ccc(Cl)cc2)c([N+](=O)[O-])cc1C
[11]
  T/C: 92 % of control
dose: 50.0 mg/kg/injection, schedule: Q01DX009 (ip), vehicle: suspension in saline
  T/C: 108 % of control
[12]
  T/C: 97 % of control
[13]
  T/C: 92 % of control
dose: 200.0 mg/kg/injection, schedule: Q01DX009 (ip), vehicle: suspension in saline
  T/C: 98 % of control

## C/C(=N\NC(=S)N(C)C)c1cnccn1
dose: 12.5 mg/kg/injection, schedule: Q01DX005 (ip), vehicle: saline with Tween-80
  T/C: 102 % of control
dose: 25.0 mg/kg/injection, schedule: Q01DX005 (ip), vehicle: saline with Tween-80
  T/C: 100 % of control
[14]
  T/C: 98 % of control and 101 % of control

## O=C(c1ccccc1)c1ccccc1NC(=O)C(F)(F)F
[2]
  T/C: 100 % of control
[3]
  T/C: 95 % of control
[4]
  T/C: 96 % of control

## CCCCCCC(=O)NC1=C(N2CC2)C(=O)C(NC(=O)CCCCCC)=C(N2CC2)C1=O
dose: 12.5 mg/kg/injection, schedule: Q04DX003 (ip), vehicle: saline with Tween-80
  T/C: 100 % of control
dose: 25.0 mg/kg/injection, schedule: Q04DX003 (ip), vehicle: saline with Tween-80
  T/C: 109 % of control
[3]
  T/C: 245 % of control
dose: 100.0 mg/kg/injection, schedule: Q04DX003 (ip), vehicle: saline with Tween-80
  T/C: 159 % of control
dose: 150.0 mg/kg/injection, schedule: Q04DX003 (ip), vehicle: saline with Tween-80
  T/C: 195 % of control
[4]
  T/C: 120 % of control

## Cc1ccccc1N=C(c1ccccc1)C1C(=O)c2ccccc2C1=O
dose: 50.0 mg/kg/injection, schedule: Q01DX005 (ip), vehicle: DMSO
  T/C: 100 % of control
dose: 50.0 mg/kg/injection, schedule: Q01DX005 (ip), vehicle: Klucel (hydroxypropylcellulose) (HPC)
  T/C: 103 % of control
dose: 100.0 mg/kg/injection, schedule: Q01DX005 (ip), vehicle: DMSO
  T/C: 98 % of control
[10]
  T/C: 106 % of control
dose: 200.0 mg/kg/injection, schedule: Q01DX005 (ip), vehicle: DMSO
  T/C: 97 % of control
dose: 200.0 mg/kg/injection, schedule: Q01DX005 (ip), vehicle: Klucel (hydroxypropylcellulose) (HPC)
  T/C: 103 % of control
dose: 400.0 mg/kg/injection, schedule: Q01DX005 (ip), vehicle: DMSO
  T/C: 101 % of control
dose: 800.0 mg/kg/injection, schedule: Q01DX005 (ip), vehicle: DMSO
  T/C: 97 % of control

## COc1ccc(C2SCC(=O)N2c2nnc(C(F)(F)F)s2)c(OC)c1OC (configuration not stated)
[5]
  T/C: 100 % of control
[6]
  T/C: 90 % of control
dose: 400.0 mg/kg/injection, schedule: Q04DX002 (ip), vehicle: saline with Tween-80
  T/C: 93 % of control

## O=C(Cc1nc2ccc(Cl)cc2[nH]c1=O)c1ccccc1
[7]
  T/C: 112 % of control
[8]
  T/C: 108 % of control
[9]
  T/C: 107 % of control

## COc1cc(-c2oc3ccccc3c(=O)c2O)cc(OC)c1OC
[2]
  T/C: 93 % of control
[3]
  T/C: 91 % of control
[4]
  T/C: 93 % of control

## CCOC1CSc2ccccc2C(c2ccccc2)=N1 (configuration not stated)
dose: 50.0 mg/kg/injection, schedule: Q01DX005 (ip), vehicle: Klucel + Tween-80
  T/C: 107 % of control
dose: 100.0 mg/kg/injection, schedule: Q01DX005 (ip), vehicle: Klucel + Tween-80
  T/C: 93 % of control
dose: 200.0 mg/kg/injection, schedule: Q01DX005 (ip), vehicle: Klucel + Tween-80
  T/C: 89 % of control

## O=C1CSC2(CCN(CCCN3c4ccccc4Sc4ccc(Cl)cc43)CC2)N1
[2]
  T/C: 98 % of control
[3]
  T/C: 116 % of control

## Cc1ccccc1N=Nc1ccc(N=Nc2ccc(N)nc2N)c(C)c1
[14]
  T/C: 104 % of control
dose: 100.0 mg/kg/injection, schedule: Q01DX005 (ip), vehicle: saline with Tween-80
  T/C: 110 % of control
dose: 200.0 mg/kg/injection, schedule: Q01DX005 (ip), vehicle: saline with Tween-80
  T/C: 99 % of control
